Assay results published in ChEMBL document CHEMBL3991601, “The target landscape of clinical kinase drugs” (Science, 2017).
pKd: −log10 of the molar value. Active and inactive are the calls of the source. For most assays here, no stated cut-off is given here; in the data, actives have a measured Kd and inactives only a lower limit.

How the values were obtained:
[1] = molecular target: T1, Serine/threonine-protein kinase STK11 (Homo sapiens, UniProt Q15831)
T1 sequence (Q15831 whole entry): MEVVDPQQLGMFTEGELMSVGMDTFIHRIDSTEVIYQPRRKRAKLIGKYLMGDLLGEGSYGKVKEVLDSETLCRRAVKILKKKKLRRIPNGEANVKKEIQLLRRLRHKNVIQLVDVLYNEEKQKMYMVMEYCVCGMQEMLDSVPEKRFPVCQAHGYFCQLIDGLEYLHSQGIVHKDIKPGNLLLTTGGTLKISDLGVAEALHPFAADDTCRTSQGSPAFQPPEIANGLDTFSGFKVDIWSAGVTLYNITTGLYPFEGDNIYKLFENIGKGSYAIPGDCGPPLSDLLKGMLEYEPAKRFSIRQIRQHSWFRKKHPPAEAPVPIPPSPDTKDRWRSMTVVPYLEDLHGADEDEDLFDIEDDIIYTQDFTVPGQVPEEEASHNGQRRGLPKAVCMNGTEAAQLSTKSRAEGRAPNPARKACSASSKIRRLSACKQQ

[2] = molecular target: Tyrosine-protein kinase Fer (Homo sapiens, UniProt P16591)
[3] = molecular target: Tyrosine-protein kinase Lck (Homo sapiens, UniProt P06239)
[4] = molecular target: T2, Serine/threonine-protein kinase LATS1 (Homo sapiens, UniProt O95835)
T2 sequence (O95835 whole entry): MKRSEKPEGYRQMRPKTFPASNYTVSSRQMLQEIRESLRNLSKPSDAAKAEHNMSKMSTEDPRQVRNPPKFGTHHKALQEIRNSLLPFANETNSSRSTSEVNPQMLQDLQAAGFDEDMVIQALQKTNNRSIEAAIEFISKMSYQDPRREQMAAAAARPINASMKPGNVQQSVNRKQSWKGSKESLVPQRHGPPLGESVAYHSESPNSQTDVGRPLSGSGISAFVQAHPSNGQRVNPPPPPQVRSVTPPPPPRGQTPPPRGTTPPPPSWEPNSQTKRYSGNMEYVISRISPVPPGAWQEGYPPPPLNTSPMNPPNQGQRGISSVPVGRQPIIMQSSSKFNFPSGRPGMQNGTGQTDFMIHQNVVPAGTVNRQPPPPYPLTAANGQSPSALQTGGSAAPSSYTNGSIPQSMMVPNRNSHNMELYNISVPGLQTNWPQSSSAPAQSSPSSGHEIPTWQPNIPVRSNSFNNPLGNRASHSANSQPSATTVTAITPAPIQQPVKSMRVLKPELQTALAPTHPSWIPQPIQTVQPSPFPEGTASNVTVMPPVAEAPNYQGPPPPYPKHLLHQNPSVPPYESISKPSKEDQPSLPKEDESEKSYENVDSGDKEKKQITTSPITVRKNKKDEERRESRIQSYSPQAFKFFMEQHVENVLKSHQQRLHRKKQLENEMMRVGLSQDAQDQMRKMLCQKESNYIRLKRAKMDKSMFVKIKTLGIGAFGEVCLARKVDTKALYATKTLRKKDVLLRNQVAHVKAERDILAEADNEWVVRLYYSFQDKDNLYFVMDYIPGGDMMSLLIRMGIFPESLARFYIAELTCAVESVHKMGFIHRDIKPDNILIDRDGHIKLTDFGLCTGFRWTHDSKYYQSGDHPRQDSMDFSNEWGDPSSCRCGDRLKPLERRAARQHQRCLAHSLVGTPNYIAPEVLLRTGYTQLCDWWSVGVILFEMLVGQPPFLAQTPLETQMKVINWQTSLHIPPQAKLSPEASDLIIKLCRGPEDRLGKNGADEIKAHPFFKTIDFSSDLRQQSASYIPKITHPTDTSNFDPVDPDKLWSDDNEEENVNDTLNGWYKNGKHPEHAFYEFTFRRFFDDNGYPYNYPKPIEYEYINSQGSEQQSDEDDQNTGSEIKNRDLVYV

[5] = molecular target: Tyrosine-protein kinase ABL1 (Homo sapiens, UniProt P00519)
[6] = molecular target: T3, Electron transfer flavoprotein subunit beta (Homo sapiens, UniProt P38117)
T3 sequence (P38117 whole entry): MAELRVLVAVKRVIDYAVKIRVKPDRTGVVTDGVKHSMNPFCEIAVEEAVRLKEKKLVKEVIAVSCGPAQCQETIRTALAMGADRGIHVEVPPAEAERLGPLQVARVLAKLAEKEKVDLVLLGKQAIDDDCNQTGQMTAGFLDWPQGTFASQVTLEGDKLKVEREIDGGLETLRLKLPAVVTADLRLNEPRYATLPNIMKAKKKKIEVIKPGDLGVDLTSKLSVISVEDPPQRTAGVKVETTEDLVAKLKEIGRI

[7] = molecular target: T4, Cysteine--tRNA ligase, cytoplasmic (Homo sapiens, UniProt P49589)
T4 sequence (P49589 whole entry): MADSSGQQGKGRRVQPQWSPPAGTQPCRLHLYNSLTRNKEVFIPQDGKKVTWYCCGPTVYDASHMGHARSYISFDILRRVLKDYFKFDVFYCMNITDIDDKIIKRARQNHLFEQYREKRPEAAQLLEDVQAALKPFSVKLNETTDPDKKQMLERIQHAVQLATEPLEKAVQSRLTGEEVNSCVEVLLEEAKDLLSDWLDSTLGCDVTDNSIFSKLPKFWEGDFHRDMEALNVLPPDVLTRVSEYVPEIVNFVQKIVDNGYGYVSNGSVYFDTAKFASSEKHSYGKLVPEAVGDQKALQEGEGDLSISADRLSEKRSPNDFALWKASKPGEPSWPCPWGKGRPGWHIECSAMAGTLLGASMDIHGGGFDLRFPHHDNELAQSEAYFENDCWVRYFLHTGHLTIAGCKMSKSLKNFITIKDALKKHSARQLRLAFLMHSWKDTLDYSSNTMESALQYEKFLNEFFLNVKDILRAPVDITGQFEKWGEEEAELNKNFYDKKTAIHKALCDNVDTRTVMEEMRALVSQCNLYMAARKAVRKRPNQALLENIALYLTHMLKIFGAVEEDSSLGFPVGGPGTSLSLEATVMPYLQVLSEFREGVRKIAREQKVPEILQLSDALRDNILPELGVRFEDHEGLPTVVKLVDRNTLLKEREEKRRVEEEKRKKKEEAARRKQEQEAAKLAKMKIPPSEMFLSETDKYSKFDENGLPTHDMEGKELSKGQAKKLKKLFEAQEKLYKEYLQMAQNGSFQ

Tyrosine-protein kinase ABL1, sequence (P00519 whole entry): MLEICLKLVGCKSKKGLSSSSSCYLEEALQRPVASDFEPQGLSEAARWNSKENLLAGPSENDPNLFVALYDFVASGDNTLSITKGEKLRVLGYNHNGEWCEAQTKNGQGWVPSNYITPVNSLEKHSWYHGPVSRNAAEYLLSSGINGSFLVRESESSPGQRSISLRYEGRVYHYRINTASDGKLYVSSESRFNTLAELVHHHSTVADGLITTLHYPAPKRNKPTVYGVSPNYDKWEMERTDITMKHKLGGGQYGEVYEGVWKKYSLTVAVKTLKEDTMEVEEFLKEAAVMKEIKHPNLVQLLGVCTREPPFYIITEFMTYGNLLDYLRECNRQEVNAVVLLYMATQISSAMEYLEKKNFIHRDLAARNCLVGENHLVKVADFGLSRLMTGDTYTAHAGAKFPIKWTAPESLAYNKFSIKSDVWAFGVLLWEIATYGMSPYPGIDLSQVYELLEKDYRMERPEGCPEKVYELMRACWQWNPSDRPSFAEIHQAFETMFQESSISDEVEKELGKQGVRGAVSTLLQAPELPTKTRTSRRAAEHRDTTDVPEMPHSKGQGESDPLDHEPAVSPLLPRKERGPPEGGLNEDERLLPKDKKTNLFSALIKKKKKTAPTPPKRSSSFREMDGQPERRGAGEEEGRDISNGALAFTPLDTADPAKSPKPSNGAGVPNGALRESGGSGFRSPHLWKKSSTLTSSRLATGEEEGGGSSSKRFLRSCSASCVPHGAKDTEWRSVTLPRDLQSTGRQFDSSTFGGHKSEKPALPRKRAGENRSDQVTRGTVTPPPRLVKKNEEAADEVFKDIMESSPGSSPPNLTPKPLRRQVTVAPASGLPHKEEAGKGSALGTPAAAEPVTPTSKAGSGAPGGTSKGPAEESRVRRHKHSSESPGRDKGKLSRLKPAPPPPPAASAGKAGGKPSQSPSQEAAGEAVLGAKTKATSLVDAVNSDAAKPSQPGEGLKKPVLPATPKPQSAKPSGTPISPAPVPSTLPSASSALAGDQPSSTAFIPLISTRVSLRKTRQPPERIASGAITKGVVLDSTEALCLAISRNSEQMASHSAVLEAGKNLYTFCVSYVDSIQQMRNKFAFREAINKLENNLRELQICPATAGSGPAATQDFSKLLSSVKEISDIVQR
Tyrosine-protein kinase Lck, sequence (P06239 whole entry): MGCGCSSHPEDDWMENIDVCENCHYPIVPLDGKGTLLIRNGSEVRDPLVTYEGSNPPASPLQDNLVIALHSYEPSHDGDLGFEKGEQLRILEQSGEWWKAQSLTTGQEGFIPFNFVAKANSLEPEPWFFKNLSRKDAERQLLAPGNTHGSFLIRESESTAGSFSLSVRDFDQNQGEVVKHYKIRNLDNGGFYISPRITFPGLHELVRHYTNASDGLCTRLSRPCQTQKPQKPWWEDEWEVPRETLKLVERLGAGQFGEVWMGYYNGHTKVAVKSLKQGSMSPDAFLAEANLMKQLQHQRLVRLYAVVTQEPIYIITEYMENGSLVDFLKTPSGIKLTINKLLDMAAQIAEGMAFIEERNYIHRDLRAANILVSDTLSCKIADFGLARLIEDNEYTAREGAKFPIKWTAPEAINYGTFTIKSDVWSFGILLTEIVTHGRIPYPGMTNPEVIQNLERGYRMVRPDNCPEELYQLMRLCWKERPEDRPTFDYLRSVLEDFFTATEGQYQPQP
Tyrosine-protein kinase Fer, sequence (P16591 whole entry): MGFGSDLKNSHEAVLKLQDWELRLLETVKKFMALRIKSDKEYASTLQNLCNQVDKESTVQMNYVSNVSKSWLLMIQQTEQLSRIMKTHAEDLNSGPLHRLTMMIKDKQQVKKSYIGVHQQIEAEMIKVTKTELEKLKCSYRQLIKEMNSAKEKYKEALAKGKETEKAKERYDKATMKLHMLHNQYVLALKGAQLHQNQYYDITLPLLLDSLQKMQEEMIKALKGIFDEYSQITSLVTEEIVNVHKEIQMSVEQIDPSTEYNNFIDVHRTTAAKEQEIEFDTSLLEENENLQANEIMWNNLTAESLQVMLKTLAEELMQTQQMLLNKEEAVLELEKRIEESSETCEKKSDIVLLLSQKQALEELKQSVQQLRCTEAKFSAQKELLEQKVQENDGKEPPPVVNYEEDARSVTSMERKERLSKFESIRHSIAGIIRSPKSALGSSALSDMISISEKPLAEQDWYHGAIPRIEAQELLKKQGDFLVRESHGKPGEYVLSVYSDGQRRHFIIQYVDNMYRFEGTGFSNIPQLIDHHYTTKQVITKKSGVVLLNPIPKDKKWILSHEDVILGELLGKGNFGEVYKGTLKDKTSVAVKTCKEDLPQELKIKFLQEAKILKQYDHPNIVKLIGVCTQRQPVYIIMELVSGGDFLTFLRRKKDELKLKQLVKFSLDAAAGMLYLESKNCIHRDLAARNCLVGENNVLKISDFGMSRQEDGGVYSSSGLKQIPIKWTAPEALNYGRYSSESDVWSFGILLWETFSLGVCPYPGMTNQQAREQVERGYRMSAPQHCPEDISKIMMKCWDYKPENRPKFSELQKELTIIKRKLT

| Compound | Kd [1] | Kd [2] | Kd [3] | Kd [4] | Kd [5] | Kd [6] | Kd [7] | pKd [1] |
| --- | --- | --- | --- | --- | --- | --- | --- | --- |
| Cn1cc(-c2ccc3nnc(C(F)(F)c4ccc5ncccc5c4)n3n2)cn1 [JNJ-38877605] | > 30 µM (inactive) | > 30 µM (inactive) | > 30 µM (inactive) | > 30 µM (inactive) | > 30 µM (inactive) | > 30 µM (inactive) | – | – |
| Cn1ncc(Cl)c1-c1cc(C(=O)N[C@H](CN)Cc2cccc(F)c2)sc1Cl [AFURESERTIB] | > 30 µM (inactive) | > 30 µM (inactive) | > 30 µM (inactive) | > 30 µM (inactive) | > 30 µM (inactive) | > 30 µM (inactive) | – | – |
| CCc1cnn2c(NCc3ccc[n+]([O-])c3)cc(N3CCCC[C@H]3CCO)nc12 [DINACICLIB] | 0.497 µM (active) | > 30 µM (inactive) | – | > 30 µM (inactive) | – | > 30 µM (inactive) | > 30 µM (inactive) | – |
| C[C@@H](Nc1cc(F)cc(F)c1)c1cc(C(=O)N(C)C)cc2c(=O)cc(N3CCOCC3)oc12 [AZD-8186] | > 30 µM (inactive) | > 30 µM (inactive) | > 30 µM (inactive) | > 30 µM (inactive) | > 30 µM (inactive) | > 30 µM (inactive) | – | – |
| CNC(=O)c1ccc(C)c(-n2c(C)cc(OCc3ccc(F)cc3F)c(Br)c2=O)c1 [PH-797804] | > 30 µM (inactive) | > 30 µM (inactive) | > 30 µM (inactive) | > 30 µM (inactive) | > 30 µM (inactive) | > 30 µM (inactive) | – | – |
| COC(=O)[C@@]1(O)C[C@H]2O[C@]1(C)n1c3ccccc3c3c4c(c5c6ccccc6n2c5c31)C(=O)NC4 [K-252A] | > 30 µM (inactive) | 0.455 µM (active) | > 30 µM (inactive) | 0.067 µM (active) | > 30 µM (inactive) | > 30 µM (inactive) | – | – |
| COc1cc(N2CCC(N3CCN(C)CC3)CC2)ccc1Nc1ncnc(Nc2ccccc2S(=O)(=O)C(C)C)n1 [ASP-3026] | > 30 µM (inactive) | 0.363 µM (active) | 1.27 µM (active) | > 30 µM (inactive) | 5.26 µM (active) | > 30 µM (inactive) | – | – |
| COc1cc(OC)c(/C=C/S(=O)(=O)Cc2ccc(OC)c(NCC(=O)O)c2)c(OC)c1 [RIGOSERTIB] | > 30 µM (inactive) | > 30 µM (inactive) | > 30 µM (inactive) | > 30 µM (inactive) | > 30 µM (inactive) | – | > 30 µM (inactive) | – |
| C=CC(=O)N1CCC(Oc2cc3c(Nc4ccc(Cl)c(Cl)c4F)ncnc3cc2OC)CC1 [POZIOTINIB] | > 30 µM (inactive) | > 30 µM (inactive) | > 30 µM (inactive) | > 30 µM (inactive) | > 30 µM (inactive) | – | – | – |
| Cn1cc(-c2ccc(F)c(C(F)(F)F)c2)nc1C1CCN(c2ncnc3[nH]ncc23)CC1 [LY-2584702] | > 30 µM (inactive) | > 30 µM (inactive) | > 30 µM (inactive) | > 30 µM (inactive) | > 30 µM (inactive) | – | – | – |
| Cc1cn(-c2cc(NC(=O)c3ccc(C)c(Nc4nccc(-c5cccnc5)n4)c3)cc(C(F)(F)F)c2)cn1 [NILOTINIB] | – | – | – | – | – | – | > 30 µM (inactive) | – |
| O=C1NC(=O)/C(=C/c2ccc3nccc(-c4ccncc4)c3c2)S1 [GSK-1059615] | > 30 µM (inactive) | > 30 µM (inactive) | > 30 µM (inactive) | > 30 µM (inactive) | > 30 µM (inactive) | – | – | – |
| Cc1cc(Nc2cc(N3CCN(C)CC3)nc(/C=C/c3ccccc3)n2)n[nH]1 [ENMD-2076] | – | > 30 µM (inactive) | – | > 30 µM (inactive) | – | > 30 µM (inactive) | > 30 µM (inactive) | – |
| OCCn1cc(-c2cnc3nnn(Cc4ccc5ncccc5c4)c3n2)cn1 [PF-04217903] | > 30 µM (inactive) | > 30 µM (inactive) | – | > 30 µM (inactive) | – | > 30 µM (inactive) | > 30 µM (inactive) | – |
| CC(C)Nc1cc(-c2c[nH]c(C(=O)N[C@H](CO)c3cccc(Cl)c3)c2)c(Cl)cn1 [ULIXERTINIB] | > 30 µM (inactive) | > 30 µM (inactive) | > 30 µM (inactive) | > 30 µM (inactive) | > 30 µM (inactive) | – | > 30 µM (inactive) | – |
| O=C(Nc1cccc(Cl)c1)Nc1ncc(CCNc2ncnc3ccsc23)s1 [SNS-314] | > 30 µM (inactive) | – | – | > 30 µM (inactive) | – | > 30 µM (inactive) | > 30 µM (inactive) | – |
| Cc1ccc(S(=O)(=O)Nc2nc3ccccc3nc2Nc2ccc3nsnc3c2)cc1 | > 30 µM (inactive) | > 30 µM (inactive) | > 30 µM (inactive) | > 30 µM (inactive) | > 30 µM (inactive) | – | > 30 µM (inactive) | – |
| Cc1nc(N)sc1-c1ccnc(Nc2ccc(N3CCOCC3)cc2)n1 [CYC-116] | > 30 µM (inactive) | – | – | 0.066 µM (active) | – | > 30 µM (inactive) | > 30 µM (inactive) | – |
| Cc1c(F)cc(C(=O)NC2CC2)cc1-c1ccc(C(=O)NCC(C)(C)C)cn1 [LOSMAPIMOD] | > 30 µM (inactive) | > 30 µM (inactive) | > 30 µM (inactive) | > 30 µM (inactive) | > 30 µM (inactive) | – | – | – |
| CCn1c(-c2nonc2N)nc2c(C#CC(C)(C)O)ncc(OC[C@H]3CCCNC3)c21 [GSK-690693] | – | – | – | – | – | > 30 µM (inactive) | > 30 µM (inactive) | – |
| C1=C/COCc2cc(ccc2OCCN2CCCC2)Nc2nccc(n2)-c2cccc(c2)COC/1 [PACRITINIB] | – | 3.66 µM (active) | 6.54 µM (active) | > 30 µM (inactive) | > 30 µM (inactive) | – | – | 8.52 |
| CN1CCN(c2ccc3nc(-c4c(N)c5c(F)cccc5[nH]c4=O)[nH]c3c2)CC1 [DOVITINIB] | – | – | – | – | – | > 30 µM (inactive) | > 30 µM (inactive) | – |
| Nc1nc(N)c2nc(-c3cccc(O)c3)c(-c3cccc(O)c3)nc2n1 [TG100-115] | – | – | – | – | > 30 µM (inactive) | – | > 30 µM (inactive) | – |
| COc1cc(CCc2cc(NC(=O)c3ccc(N4C[C@@H](C)N[C@@H](C)C4)cc3)n[nH]2)cc(OC)c1 [AZD-4547] | > 30 µM (inactive) | > 30 µM (inactive) | > 30 µM (inactive) | > 30 µM (inactive) | > 30 µM (inactive) | – | > 30 µM (inactive) | – |
